IC50 data for 26 molecules are collected here from patent US20090105349A1, “ANDROGEN MODULATORS” (WARNER-LAMBERT COMPANY LLC, priority 2004, published 2009).

Residue numbers refer to the chain shown, from its start. Where two headings read alike, the source gives them in different places.

Assay [1] concerns the target T1, hAR (human androgen receptor) (Homo sapiens, UniProt P10275).
T1 construct: made in house; host or cells: baculovirus/Sf9 insect cells (crude extract)
T1 sequence (P10275 1-920): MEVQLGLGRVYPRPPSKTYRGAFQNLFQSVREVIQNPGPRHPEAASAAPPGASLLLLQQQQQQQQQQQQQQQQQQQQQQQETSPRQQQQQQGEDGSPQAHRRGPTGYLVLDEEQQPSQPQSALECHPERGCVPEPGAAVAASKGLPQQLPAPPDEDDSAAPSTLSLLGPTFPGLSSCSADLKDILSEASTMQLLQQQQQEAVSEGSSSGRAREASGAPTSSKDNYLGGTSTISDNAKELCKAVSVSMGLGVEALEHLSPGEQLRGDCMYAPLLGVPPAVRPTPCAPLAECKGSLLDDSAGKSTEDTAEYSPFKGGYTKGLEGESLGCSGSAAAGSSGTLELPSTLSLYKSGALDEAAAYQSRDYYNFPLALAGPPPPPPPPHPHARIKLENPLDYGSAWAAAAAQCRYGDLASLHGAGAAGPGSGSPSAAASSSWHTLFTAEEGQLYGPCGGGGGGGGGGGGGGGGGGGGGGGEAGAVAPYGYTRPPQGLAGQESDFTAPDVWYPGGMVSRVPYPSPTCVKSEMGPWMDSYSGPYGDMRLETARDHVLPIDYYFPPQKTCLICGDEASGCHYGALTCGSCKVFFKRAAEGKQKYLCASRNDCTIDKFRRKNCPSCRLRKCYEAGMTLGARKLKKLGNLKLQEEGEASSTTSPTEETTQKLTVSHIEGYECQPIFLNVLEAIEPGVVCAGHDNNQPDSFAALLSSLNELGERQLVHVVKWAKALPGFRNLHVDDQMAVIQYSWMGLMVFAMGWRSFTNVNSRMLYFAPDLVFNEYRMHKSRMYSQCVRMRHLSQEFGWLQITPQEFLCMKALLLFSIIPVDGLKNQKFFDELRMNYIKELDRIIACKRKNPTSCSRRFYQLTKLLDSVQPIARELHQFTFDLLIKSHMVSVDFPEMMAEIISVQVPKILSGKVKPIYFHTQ
As to the kind of experiment: Competitive hAR binding assay with 3H-DHT tracer. Here is the method: The description below describes how the assay was carried out.
Competitive binding analysis was performed on baculovirus/Sf9 generated hAR extracts in the presence or absence of different concentrations of test agent and a fixed concentration of ^3H-dihydrotestosterone (3H-DHT) as tracer. […] Subsequently, the binding reactions are washed three times to completely remove excess unbound ^3H-DHT. hAR bound ^3H-DHT levels are determined in the presence of compounds (i.e. competitive binding) and compared to levels bound when no competitor is present (i.e. maximum binding). Compound binding affinity to the hAR is expressed as the concentration of compound at which one half of the maximum binding is inhibited.

The target of assay [2] is T2, androgen receptor in MDA-MB453-MMTV clone 54-19 cells (Homo sapiens, UniProt P10275).
T2 sequence (P10275 1-920 Q868H): T1 sequence (P10275 1-920) with Q868H
As to the kind of experiment: AR antagonist cell assay (MMTV-luciferase reporter). Type of assay: cell-based. The procedure:
The compounds ability to antagonize the effects of androgen on the androgen receptor were determined in a whole cell assay as described immediately below.
This cell line is a stable transfected cell line with MDA-MB453 cell background (a human breast tumor cell line expressing androgen receptor). A MMTV minimal promoter containing ARE was first cloned in front of a firefly luciferase reporter gene. Then the cascade was cloned into transfection vector pUV120puro. […] Puromycin resistant stable cell line was selected.
Plating medium: DMEM (phenol red free), 10% charcoal treated HyClone serum, 1% L-glutamine
Assay medium: DMEM (phenol red free), 1% charcoal treated HyClone serum, 1% L-glutamine, and 1% penicillin/streptomycin
Assay procedure: • 1. Cells are maintained in culture medium, splitting cells when they reach 80-90% confluence • 2. To test compounds, 10,000 cells/well are plated to opaque 96 cell culture plate in 100 ul/well plating medium, culture for overnight at 37° C. in cell culture incubator • 3. […] Add 10 ul/well freshly prepared DHT (final concentration at […]) to each well, incubate at 37° C. for 17 hr (overnight) • 5.
The results are reported as the mean of multiple tests as described below (the numbers of tests are indicated in the footnote). N.D. denotes that the compound was not tested.
(In general: Reporter assays use an easily measured gene product as a stand-in for the process of interest.)

Setting [3] is: baculovirus/Sf9 hAR extract, 1 nM 3H-DHT, one hour at 4° C, mean of multiple tests, read-out: AR Binding IC50.
Where [4] appears, read: MDA-MB453-MMTV clone 54-19, inhibition of DHT induced luciferase, 17 hr; mean of multiple tests; read-out: AR Cell IC50.
The mark [5] stands for this setting: read-out: AR Cell IC50; MDA-MB453-MMTV clone 54-19, inhibition of DHT induced luciferase, 17 hr; mean of multiple tests.

In the case of `CCC(C)c1ccccc1Oc1ccc(C#N)c(Cl)c1` (stereo not shown) [Example 48, 4-(2-sec-Butyl-phenoxy)-2-chloro-benzonitrile], the figures for the IC50 in assay [1] (setting [3]) and in assay [2] (setting [4]) were 184 nM and more than 1000 nM, respectively.

`Cc1ccc(C(C)C)c(Oc2ccc(C#N)c(Cl)c2)c1` [Example 49, 2-Chloro-4-(2-isopropyl-5-methyl-phenoxy)-benzonitrile]: the 50% inhibitory concentration (IC50) – broadly, the concentration at which inhibition is half-maximal – in assay [1] came out at 79 nM; in assay [2] (setting [4]) it was 784 nM.

For `Cc1cc(C)c(Oc2ccc(C#N)c(Cl)c2)c(C)c1` [Example 50, 2-Chloro-4-(2,4,6-trimethyl-phenoxy)-benzonitrile], the IC50 in assay [1] stood at 22 nM; in assay [2] (setting [4]) it was 214 nM.

With `C=CCc1ccccc1Oc1ccc(C#N)c(Cl)c1` [Example 51, 4-(2-Allyl-phenoxy)-2-chloro-benzonitrile], the half-maximal inhibitory concentration (IC50) in assay [1] stood at 62 nM; in assay [2] (setting [4]), 252 nM.

As to `N#Cc1ccc(Oc2ccc(F)cc2)cc1Cl` [Example 52, 2-Chloro-4-(4-fluoro-phenoxy)-benzonitrile], the IC50 in assay [1] (setting [3]) was found to be 152 nM; in assay [2] (setting [4]) it was 261 nM.

As to `Cc1ccc(C(C)C)cc1Oc1ccc(C#N)c(Cl)c1` [Example 53, 2-Chloro-4-(5-isopropyl-2-methyl-phenoxy)-benzonitrile], the values for the IC50 in assay [1] (setting [3]) and in assay [2] (setting [4]) were 192 nM and 621 nM, respectively.

For `COc1cccc(Oc2ccc(C#N)c(Cl)c2)c1OC` [Example 54, 2-Chloro-4-(2,3-dimethoxy-phenoxy)-benzonitrile], the IC50 in assay [1] (setting [3]) was 157 nM; in assay [2] (setting [5]) it was 26 nM.

As to `COc1cc(F)ccc1Oc1ccc(C#N)c(Cl)c1` [Example 56, 2-Chloro-4-(4-fluoro-2-methoxy-phenoxy)-benzonitrile], the figures for the IC50 in assay [1] and in assay [2] (setting [5]) were 6 nM and 11 nM, respectively.

With `CCOc1cc(C)ccc1Oc1ccc(C#N)c(Cl)c1` [Example 57, 2-Chloro-4-(2-ethoxy-4-methyl-phenoxy)-benzonitrile], the half-maximal inhibitory concentration (IC50) in assay [1] was 7 nM; in assay [2] (setting [4]), more than 1000 nM.

Consider `CSc1ccc(Oc2ccc(C#N)c(Cl)c2)c(C)c1` [Example 59, 2-Chloro-4-(2-methyl-4-methylsulfanyl-phenoxy)-benzonitrile], for which the IC50 in assay [1] (setting [3]) was 268 nM; in assay [2] (setting [4]) it was 175 nM.

As for `Cc1cc(F)ccc1Oc1ccc(C#N)c(Cl)c1` [Example 60, 2-Chloro-4-(4-fluoro-2-methyl-phenoxy)-benzonitrile], the IC50 in assay [1] came to 48 nM; in assay [2] (setting [5]), 72 nM.

Regarding `CCCC(=O)Nc1ccc(Oc2ccc(C#N)c(Cl)c2)cc1` [Example 61, N-[4-(3-Chloro-4-cyano-phenoxy)-phenyl]-butyramide], the IC50 came out at 163 nM in assay [1] (setting [3]) and 535 nM in assay [2] (setting [4]).

For `CC(C)Oc1ccccc1Oc1ccc(C#N)c(Cl)c1` [Example 63, 2-Chloro-4-(2-isopropoxy-phenoxy)-benzonitrile], the IC50 in assay [1] amounted to 70 nM; in assay [2] (setting [5]) it was 4 nM.

Turning to `N#Cc1ccc(Oc2ccccc2C(F)(F)F)cc1Cl` [Example 64, 4-(2-Trifluoromethyl-phenoxy)-2-chloro-benzonitrile], the IC50 in assay [1] is 34 nM; in assay [2] (setting [4]), 842 nM.

On to `N#Cc1ccc(Oc2ccccc2C#N)cc1Cl` [Example 65, 2-Chloro-(2-cyano-phenoxy)-benzonitrile], for which the IC50 in assay [1] came out at 14 nM; in assay [2] (setting [5]), 0.32 nM.

Take `N#Cc1ccc(Oc2ccccc2)cc1Cl` [Example 66, 2-Chloro-4-phenoxy-benzonitrile]: the IC50 is 147 nM in assay [1] (setting [3]) and 333 nM in assay [2] (setting [4]).

With `N#Cc1ccc(Oc2ccc(C#N)c(Cl)c2)cc1` [Example 67, 2-Chloro-(4-cyano-phenoxy)-benzonitrile], the results for the concentration for half-maximal inhibition (IC50) in assay [1] (setting [3]) and in assay [2] (setting [4]) were 230 nM and 340 nM, respectively.

`Cc1ccc(C)c(Oc2ccc(C#N)c(Cl)c2)c1` [Example 68, 2-Chloro-4-(2,5-dimethyl-phenoxy)-benzonitrile]: the figures for the IC50 in assay [1] and in assay [2] (setting [4]) were 69 nM and more than 1000 nM, respectively.

As to `N#Cc1ccc(Oc2ccccc2-c2ccccc2)cc1Cl` [Example 69, 4-(Biphenyl-2-yloxy)-2-chloro-benzonitrile], the figures for the IC50 in assay [1] (setting [3]) and in assay [2] (setting [4]) were 159 nM and more than 1000 nM, respectively.

In the case of `N#Cc1ccc(Oc2ccc(O)cc2)cc1C(F)(F)F` [Example 80, 4-(4-Hydroxy-phenoxy)-2-trifluoromethyl-benzonitrile], the IC50 in assay [1] (setting [3]) turned out to be 207 nM; in assay [2] (setting [5]), 62 nM.

For the molecule `N#Cc1ccc(Oc2cccc(O)c2)cc1C(F)(F)F` [Example 82, 4-(3-Hydroxy-phenoxy)-2-trifluoromethyl-benzonitrile], the results for the IC50 in assay [1] and in assay [2] (setting [5]) were 85 nM and 61 nM, respectively.

For `CC(=O)c1c(O)cccc1Oc1ccc(C#N)c(C(F)(F)F)c1` [Example 85, 4-(2-Acetyl-3-hydroxy-phenoxy)-2-trifluoromethyl-benzonitrile], the IC50 in assay [1] (setting [3]) came to 111 nM; in assay [2] (setting [5]) it was 4 nM.

For the molecule `CC(=O)c1ccccc1Oc1ccc(C#N)c(C(F)(F)F)c1` [Example 88, 4-(2-Acetyl-phenoxy)-2-trifluoromethyl-benzonitrile], the IC50 in assay [1] (setting [3]) was 276 nM; in assay [2] (setting [4]) it was 123 nM.

Turning to `COc1ccc(Oc2ccc(C#N)c(C(F)(F)F)c2)c(C(C)=O)c1` [Example 90, 4-(2-Acetyl-4-methoxy-phenoxy)-2-trifluoromethyl-benzonitrile], the IC50 came to 204 nM in assay [1] (setting [3]) and 477 nM in assay [2] (setting [4]).

For the molecule `N#Cc1ccc(Oc2cccc3ccccc23)cc1C(F)(F)F` [Example 97, 4-(Naphthalen-1-yloxy)-2-trifluoromethyl-benzonitrile], the IC50 was 100 nM in assay [1] and 554 nM in assay [2] (setting [4]).

As for `Cc1ccc(Oc2ccc(C#N)c(C(F)(F)F)c2)c(C)c1` [Example 99, 4-(2,4-Dimethyl-phenoxy)-2-trifluoromethyl-benzonitrile], the results for the IC50 in assay [1] and in assay [2] (setting [4]) were 46 nM and 899 nM, respectively.
